{"source": "paper PMC7754187", "about": "(ACS Chemical Biology, 2020)", "system": "seven human 14-3-3 isoforms", "test": "FA of ERRγ phosphopeptides with the seven 14-3-3 isoforms", "type": "binding", "settings": "14-3-3γ compared with other isoforms; Figure 2b, Figure S1", "note": "Non-standard residues stand in square brackets, D forms with d. Residues, ends and D or L forms follow the SMILES beside them. pS = N[C@@H](COP(=O)(O)O)C(=O)O"}
{"smiles": "CC(=O)N[C@@H](CCCCN)C(=O)N[C@@H](CCCNC(=N)N)C(=O)N[C@@H](CCCNC(=N)N)C(=O)N[C@@H](CCCNC(=N)N)C(=O)N[C@@H](CCCCN)C(=O)N[C@@H](COP(=O)(O)O)C(=O)N[C@@H](CS)C(=O)N[C@@H](CCC(N)=O)C(=O)N[C@@H](C)C(N)=O", "note": "[DBD] (Ac-KRRRK[pS]CQA-NH2)", "values": [{"measurement": "Relative affinity among 14-3-3 isoforms (in words)", "result": "highest affinity"}]}
